“Also recorded” adds a separate entry of the source. Values belong to the compound of their own block, whether it stands above or below them.
Assays:
Plasmid pUC19 DNA = experiment: electrophoretic mobility shift assay (EMSA); assay type: binding
Description: To test whether BDA-2 reacts with DNA as a crosslinker, electrophoretic mobility shift assay (EMSA) was performed. Cisplatin, a known DNA binding agent, was used as positive control. Plasmid pUC19 DNA was incubated with BDA-2 or cisplatin.

[1] = molecular target: purified, human Bcl2 protein (Homo sapiens, UniProt P10415); experiment: in vitro cell-free Bcl2 conformational change assay (IP with anti-Bcl2/BH3 domain antibody); assay type: biochemical
Description: To test whether BDA-2 directly induces Bcl2 conformational change, an in vitro cell-free assay was employed. Purified recombinant Bcl2 protein was incubated with increasing concentrations of BDA-2 in lysis buffer, followed by immunoprecipitation (IP) using the anti-Bcl2/BH3 domain antibody.

A549 cells = experiment: Bcl2 expression after mTOR inhibition (Western blot); assay type: cell-based; conditions: increasing concentrations, 24 hr
Description: (§1) A549 or H460 cells were treated with increasing concentrations of RAD001 for 24 h. Bcl2 and p-P70S6K were analyzed by Western blot.
(§2) Rapamycin and its derivative RAD001 (i.e. everolimus) are potent allosteric inhibitors of mTOR. […] Previous reports indicate that expression of Bcl2 is associated with resistance of cancer cells to mTOR inhibitors. To further test whether mTOR inhibition regulates Bcl2 expression, A549 and H460 cells were treated with increasing concentrations of RAD001 for 24 hr.

H460 cells [2] = experiment: as above; assay type: cell-based; conditions: increasing concentrations, 24 hr
Description: as §1, §2

[3] = tested on: Bcl2 in tumor tissues of NSCLC patients; experiment: Bcl2 expression by IHC in tumor tissue of treated NSCLC patients; assay type: in vivo, human; conditions: 5 or 10 mg/day for 28 days, 10 NSCLC patients
Description: To test whether a similar effect of RAD001 on Bcl2 expression occurs in patients Bcl2 expression was analyzed by IHC in baseline and post-treatment tissue samples obtained from 10 NSCLC patients treated with RAD001 (5 or 10 mg/day) for 28 days as part of a neoadjuvant clinical study of everolimus in patients with resectable NSCLC. […] Thus, inhibition of Bcl2 may enhance the potency of mTOR inhibitor against lung cancer.

H460 cells [4] = experiment: SRB cell growth assay, combination with mTOR inhibitor; assay type: cell-based, human; conditions: BDA-366 100 nM, RAD001 1 nM, alone or in combination, 72 hr
Description: Cell growth was analyzed by sulforhodamine B (SRB) colorimetric assay.

[5] = tested on: H460 or DMS53 cells expressing Bcl2 shRNA transfected with WT Bcl2; experiment: rescue of Bcl2-silenced cells with exogenous WT Bcl2; assay type: cell-based; conditions: 72 h
From the text: (§3) Whether expression of exogenous Bcl2 can restore the sensitivity of Bcl2-silenced lung cancer cells to BDA-2 and whether the BDA-2/BH4 binding is important for such effect was examined. WT and BDA-2 binding deficient D10A/N11A/R12A/E13A (AAAA) Bcl2 mutant cDNA in pCIneo or vector-only control were transfected into H460 or DMS53 cells expressing Bcl2 shRNA. It has been reported that if the shRNA is directed to the 3′ UTR or 5′ UTR of the gene, the effect of the shRNA1 can be rescued by ectopically expressing the protein using the wild-type or mutant cDNA. Because Bcl2 shRNA1 targets the 5′UTR of endogenous Bcl2, the silencing effect of shRNA1 on Bcl2 expression could be rescued by transfection of exogenous WT or AAAA Bcl2 mutant. After transfection, cells were treated with BDA-2 or the BH3 mimetic ABT-199 at the indicated concentrations for 72 h. […] The apoptotic effect of BDA-2 on lung cancer cells requires its BH4 binding.

[6] = tested on: H460 or DMS53 cells expressing Bcl2 shRNA transfected with AAAA Bcl2 mutant; experiment: rescue of Bcl2-silenced cells with AAAA Bcl2 mutant; assay type: cell-based; conditions: 72 h
From the text: as §3

purified recombinant Bax = experiment: cell-free Bax activation (IP using 6A7 Bax antibody); assay type: biochemical; conditions: without Bcl2
Description: BDA-366-induced Bcl2 conformational change was also confirmed by immunofluorescence using a Bcl2/BH3-domain specific antibody. […] To test this possibility, a 6A7 Bax antibody that only recognizes the conformationally changed, active, form of Bax was employed. Purified Bcl2 was treated with BDA-366 in lysis buffer for 1 h. The mixture of Bcl2/BDA-2 was then incubated with purified recombinant Bax for another 2 h, followed by IP using 6A7 antibody.
To further test whether the BH3 domain of Bcl2 is important for BDA-366 activation of Bax, purified recombinant WT and the BH3 deletion (ΔBH3) mutant Bcl2 proteins were incubated with purified Bax protein in the absence or presence of BDA-366, followed by IP with 6A7 antibody. […] To test this at the cellular or mitochondrial level, WT, ΔBH3 Bcl2 mutant and empty vector (pCIneo) were transfected into H1299 cells that express undetectable levels of endogenous Bcl2 but high levels of endogenous Bax. Cells or isolated mitochondria from these cells were treated with BDA-2, followed by IP with Bcl2 BH3 or 6A7 antibody, respectively.

Sequence of purified, human Bcl2 protein (P10415 whole entry, the tested form may be a part): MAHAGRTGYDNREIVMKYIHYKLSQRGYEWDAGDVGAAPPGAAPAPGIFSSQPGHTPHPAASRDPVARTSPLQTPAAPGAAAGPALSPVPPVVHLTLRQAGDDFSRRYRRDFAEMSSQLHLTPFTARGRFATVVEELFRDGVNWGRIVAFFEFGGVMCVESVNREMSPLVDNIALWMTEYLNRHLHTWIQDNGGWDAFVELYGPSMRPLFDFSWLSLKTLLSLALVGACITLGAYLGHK

Compound: N.N.[Cl][Pt][Cl] [cisplatin, reference compound]
binding to pUC19 DNA causing mobility shift (Plasmid pUC19 DNA): can bind to pUC19 DNA to cause mobility shift
direct induction of Bcl2 conformational change (BH3 exposure) [1]: not

Compound: CO[C@H]1C[C@@H]2CC[C@@H](C)[C@@](O)(O2)C(=O)C(=O)N2CCCC[C@H]2C(=O)O[C@H]([C@H](C)C[C@@H]2CC[C@@H](OCCO)[C@H](OC)C2)CC(=O)[C@H](C)/C=C(\C)[C@@H](O)[C@@H](OC)C(=O)[C@H](C)C[C@H](C)/C=C/C=C/C=C/1C [RAD001]
Bcl2 expression (A549 cells): up-regulation of Bcl2 in a dose-dependent manner; also recorded: up-regulates Bcl2
Bcl2 expression (H460 cells [2]): up-regulation of Bcl2 in a dose-dependent manner; also recorded: up-regulates Bcl2
Bcl2 expression in post-treatment tumor tissues compared to baseline [3]: increased expression of Bcl2
cell growth inhibition (H460 cells [4]): partially inhibited lung cancer cell growth

Compound: CC1(C)CCC(CN2CCN(c3ccc(C(=O)NS(=O)(=O)c4ccc(NCC5CCOCC5)c([N+](=O)[O-])c4)c(Oc4cnc5[nH]ccc5c4)c3)CC2)=C(c2ccc(Cl)cc2)C1 [ABT-199, reference compound]
sensitivity of cells after expression of exogenous WT Bcl2 [5]: restored sensitivity
sensitivity of cells restored after expression of AAAA Bcl2 [6]: restored the sensitivity

direct induction of Bcl2 conformational change (BH3 exposure) [1]: not
Compound: COc1cc([C@@H]2c3cc4c(cc3[C@@H](O[C@@H]3O[C@@H]5CO[C@@H](C)O[C@H]5[C@H](O)[C@H]3O)[C@H]3COC(=O)[C@H]23)OCO4)cc(OC)c1O [VP-16]

Compound: C#Cc1cccc(Nc2ncnc3cc(OCCOC)c(OCCOC)cc23)c1 [erlotinib, N-(3-ethynylphenyl)-6,7-bis(2-methoxyethoxy)quinazolin-4-amine]
Bcl-2/Bcl-XL expression (lung cancer cells): up-regulation of Bcl-2/Bcl-XL

Compound: BAM7 [reference compound]
direct activation of Bax (purified recombinant Bax): can directly activate Bax

Reference: patent US9980936B2, “BH4 antagonists and methods related thereto” (Emory University, priority 2014, dated 2018)
